“And” between values parts separate entries of the source, which are not always exact repeats. Identical values can stand only once. Inconclusive results and toxic doses are left out.
Tested on: BDF1 mice, P1081 chloroleukemia ip, survival T/C
Experiment: NCI In Vivo Anticancer Drug Screen. Data for tumor model P1081 Chloroleukemia (intraperitoneal) in B6D2F1 (BDF1) mice
Conditions: endpoint: mean survival time, higher = longer survival
Method: The antitumor activity of compounds was measured in mice bearing transplantable tumors. Survival or tumor size were measured and the results are expressed as the measurement made in the treated group (T) divided by the measurement made in the vehicle treated control group (C). The tumor model used in this assay is P1081 Chloroleukemia (intraperitoneal) in B6D2F1 (BDF1) mice

[1] = dose: 25.0 mg/kg/injection, schedule: Q01DX010 (ip), vehicle: saline
[2] = dose: 50.0 mg/kg/injection, schedule: Q01DX010 (ip), vehicle: saline
[3] = dose: 62.5 mg/kg/injection, schedule: Q01DX Z (sc), vehicle: steriod suspending solution
[4] = dose: 125.0 mg/kg/injection, schedule: Q01DX Z (sc), vehicle: steriod suspending solution
[5] = dose: 250.0 mg/kg/injection, schedule: Q01DX Z (sc), vehicle: steriod suspending solution
[6] = dose: 500.0 mg/kg/injection, schedule: Q01DX Z (sc), vehicle: steriod suspending solution
[7] = dose: 1000.0 mg/kg/injection, schedule: Q01DX Z (sc), vehicle: steriod suspending solution
[8] = dose: 2.5 mg/kg/injection, schedule: Q01DX Z (ip), vehicle: carboxymethylcellulose (CMC)
[9] = dose: 8.0 mg/kg/injection, schedule: Q01DX010 (ip), vehicle: saline
[10] = dose: 16.0 mg/kg/injection, schedule: Q01DX010 (ip), vehicle: saline

`COS(C)(=O)=O` was tested, and the T/C (dose: 1.6 mg/kg/injection, schedule: Q01DX Z (ip), vehicle: water) was 94 % of control, the T/C (dose: 3.1 mg/kg/injection, schedule: Q01DX Z (ip), vehicle: water) was 99 % of control and the T/C (dose: 6.25 mg/kg/injection, schedule: Q01DX Z (ip), vehicle: water) was 120 % of control and 103 % of control. For the same molecule, the T/C (dose: 12.5 mg/kg/injection, schedule: Q01DX Z (ip), vehicle: water) was 109 % of control, the T/C [1] was 95 % of control and the T/C (dose: 25.0 mg/kg/injection, schedule: Q01DX Z (ip), vehicle: water) was 112 % of control and 98 % of control. For the same molecule, the T/C [2] was 115 % of control, the T/C (dose: 50.0 mg/kg/injection, schedule: Q01DX Z (ip), vehicle: water) was 90 % of control and the T/C (dose: 100.0 mg/kg/injection, schedule: Q01DX Z (ip), vehicle: water) was 91 % of control.
`C[C@H](N)C(=O)N[C@@H]1[C@H]2C(=C(O)C[C@@H](O)[C@@H]2O)C(=O)O[C@@H]1C` was tested, and the T/C (dose: 93.8 mg/kg/injection, schedule: Q01DX Z (ip), vehicle: saline) was 124 % of control, the T/C (dose: 187.5 mg/kg/injection, schedule: Q01DX Z (ip), vehicle: saline) was 150 % of control and the T/C (dose: 250.0 mg/kg/injection, schedule: Q01DX Z (ip), vehicle: saline) was 161 % of control. For the same molecule, the T/C (dose: 375.0 mg/kg/injection, schedule: Q01DX Z (ip), vehicle: saline) was 175 % of control, the T/C (dose: 500.0 mg/kg/injection, schedule: Q01DX Z (ip), vehicle: saline) was 153 % of control and the T/C (dose: 1000.0 mg/kg/injection, schedule: Q01DX Z (ip), vehicle: saline) was 119 % of control.
With `CSc1ncnc2c1ncn2C1OC(CO)C(O)C1O` (centres undefined) the T/C (dose: 3.1 mg/kg/injection, schedule: Q01DX Z (ip), vehicle: carboxymethylcellulose (CMC)) was 105 % of control and 92 % of control, the T/C (dose: 6.25 mg/kg/injection, schedule: Q01DX Z (ip), vehicle: carboxymethylcellulose (CMC)) was 102 % of control and the T/C (dose: 12.5 mg/kg/injection, schedule: Q01DX Z (ip), vehicle: carboxymethylcellulose (CMC)) was 105 % of control and 90 % of control. For the same molecule, the T/C (dose: 25.0 mg/kg/injection, schedule: Q01DX Z (ip), vehicle: carboxymethylcellulose (CMC)) was 105 % of control and 98 % of control.
`Nc1nc2n[nH]nc2c(=O)[nH]1` was tested, and the T/C (dose: 50.0 mg/kg/injection, schedule: Q01DX Z (ip), vehicle: other) was 175 % of control and the T/C (dose: 100.0 mg/kg/injection, schedule: Q01DX Z (ip), vehicle: other) was 183 % of control.
For `C[C@]12CCC(=O)C=C1CC[C@@H]1[C@@H]2CC[C@@]2(C)[C@H]1CC[C@]2(C)O`, the T/C [3] was 101 % of control, the T/C [4] was 101 % of control and the T/C [5] was 106 % of control and 108 % of control. The T/C [6] was 91 % of control and 101 % of control and the T/C [7] was 100 % of control.
For `CC[C@@H](c1ccc(O)cc1)[C@@H](CC)c1ccc(O)cc1`, the T/C [3] was 101 % of control, the T/C [4] was 104 % of control and the T/C [5] was 108 % of control and 118 % of control and 105 % of control. For the same molecule, the T/C [6] was 108 % of control and 112 % of control and 103 % of control, the T/C [7] was 102 % of control and the T/C (dose: 2000.0 mg/kg/injection, schedule: Q01DX Z (sc), vehicle: steriod suspending solution) was 100 % of control.
`CCN(CC)C(=S)S` was tested, and the T/C (dose: 125.0 mg/kg/injection, schedule: Q01DX Z (ip), vehicle: other) was 99 % of control, the T/C (dose: 250.0 mg/kg/injection, schedule: Q01DX Z (ip), vehicle: other) was 96 % of control and the T/C (dose: 1000.0 mg/kg/injection, schedule: Q01DX Z (ip), vehicle: other) was 102 % of control.
`OCC1OC(n2cnc3c(Cl)ncnc32)C(O)C1O` (centres undefined) was tested, and the T/C [8] was 103 % of control, the T/C (dose: 62.5 mg/kg/injection, schedule: Q01DX010 (ip), vehicle: saline) was 95 % of control and the T/C (dose: 62.5 mg/kg/injection, schedule: Q01DX Z (ip), vehicle: carboxymethylcellulose (CMC)) was 95 % of control. For the same molecule, the T/C (dose: 125.0 mg/kg/injection, schedule: Q01DX010 (ip), vehicle: saline) was 90 % of control, the T/C (dose: 125.0 mg/kg/injection, schedule: Q01DX Z (ip), vehicle: carboxymethylcellulose (CMC)) was 91 % of control and the T/C (dose: 250.0 mg/kg/injection, schedule: Q01DX010 (ip), vehicle: saline) was 100 % of control. For the same molecule, the T/C (dose: 250.0 mg/kg/injection, schedule: Q01DX Z (ip), vehicle: carboxymethylcellulose (CMC)) was 118 % of control and 95 % of control, the T/C (dose: 500.0 mg/kg/injection, schedule: Q01DX010 (ip), vehicle: saline) was 100 % of control and the T/C (dose: 500.0 mg/kg/injection, schedule: Q01DX Z (ip), vehicle: carboxymethylcellulose (CMC)) was 98 % of control and 104 % of control.
With `O=C(Nc1ccc(C2=NCCCN2)cc1)c1ccc(C(=O)Nc2ccc(C3=NCCCN3)cc2)cc1` the T/C (dose: 0.5 mg/kg/injection, schedule: Q01DX Z (ip), vehicle: water) was 109 % of control and 101 % of control, the T/C (dose: 1.0 mg/kg/injection, schedule: Q01DX Z (ip), vehicle: water) was 110 % of control and 118 % of control and the T/C (dose: 4.0 mg/kg/injection, schedule: Q01DX Z (ip), vehicle: water) was 162 % of control.
`C=CC(CN1CC1)OC(C)=O` (centres undefined) was tested, and the T/C (dose: 0.24 mg/kg/injection, schedule: Q01DX Z (ip), vehicle: carboxymethylcellulose (CMC)) was 108 % of control, the T/C (dose: 0.47 mg/kg/injection, schedule: Q01DX Z (ip), vehicle: carboxymethylcellulose (CMC)) was 116 % of control and the T/C (dose: 0.94 mg/kg/injection, schedule: Q01DX Z (ip), vehicle: carboxymethylcellulose (CMC)) was 103 % of control. The T/C (dose: 3.75 mg/kg/injection, schedule: Q01DX Z (ip), vehicle: carboxymethylcellulose (CMC)) was 194 % of control, the T/C (dose: 4.0 mg/kg/injection, schedule: Q01DX010 (ip), vehicle: saline) was 150 % of control and the T/C [9] was 160 % of control. For the same molecule, the T/C [10] was 170 % of control.
`C1CN1c1nc(N2CC2)nc(N2CC2)n1` was tested, and the T/C (dose: 0.03 mg/kg/injection, schedule: Q01DX Z (ip), vehicle: saline) was 92 % of control, the T/C (dose: 0.06 mg/kg/injection, schedule: Q01DX Z (ip), vehicle: saline) was 107 % of control and the T/C (dose: 0.13 mg/kg/injection, schedule: Q01DX010 (ip), vehicle: saline) was 95 % of control and 100 % of control. For the same molecule, the T/C (dose: 0.25 mg/kg/injection, schedule: Q01DX010 (ip), vehicle: saline) was 94 % of control, the T/C (dose: 0.25 mg/kg/injection, schedule: Q01DX Z (ip), vehicle: saline) was 122 % of control and 102 % of control and the T/C (dose: 0.5 mg/kg/injection, schedule: Q01DX010 (ip), vehicle: saline) was 109 % of control. For the same molecule, the T/C (dose: 0.5 mg/kg/injection, schedule: Q01DX Z (ip), vehicle: saline) was 121 % of control and 90 % of control, the T/C (dose: 1.0 mg/kg/injection, schedule: Q01DX010 (ip), vehicle: saline) was 88 % of control and the T/C (dose: 1.0 mg/kg/injection, schedule: Q01DX Z (ip), vehicle: saline) was 102 % of control. The T/C (dose: 24.0 micrograms/kg/injection, schedule: Q01DX Z (ip), vehicle: saline) was 89 % of control, the T/C (dose: 48.0 micrograms/kg/injection, schedule: Q01DX Z (ip), vehicle: saline) was 96 % of control and the T/C (dose: 95.0 micrograms/kg/injection, schedule: Q01DX Z (ip), vehicle: saline) was 98 % of control. The T/C (dose: 190.0 micrograms/kg/injection, schedule: Q01DX Z (ip), vehicle: saline) was 89 % of control.
`CCN(CC)CCNc1ccc(C)c2sc3ccccc3c(=O)c12` was tested, and the T/C (dose: 1.56 mg/kg/injection, schedule: Q01DX Z (ip), vehicle: methylcellulose (MC)) was 87 % of control, the T/C (dose: 6.25 mg/kg/injection, schedule: Q01DX Z (ip), vehicle: methylcellulose (MC)) was 88 % of control and the T/C (dose: 6.3 mg/kg/injection, schedule: Q01DX Z (ip), vehicle: methylcellulose (MC)) was 90 % of control. For the same molecule, the T/C (dose: 12.5 mg/kg/injection, schedule: Q01DX Z (ip), vehicle: methylcellulose (MC)) was 91 % of control, the T/C [1] was 110 % of control and 122 % of control and the T/C (dose: 25.0 mg/kg/injection, schedule: Q01DX Z (ip), vehicle: methylcellulose (MC)) was 95 % of control. For the same molecule, the T/C [2] was 150 % of control, the T/C (dose: 50.0 mg/kg/injection, schedule: Q01DX Z (ip), vehicle: methylcellulose (MC)) was 96 % of control and the T/C (dose: 100.0 mg/kg/injection, schedule: Q01DX010 (ip), vehicle: saline) was 122 % of control and 95 % of control. The T/C (dose: 100.0 mg/kg/injection, schedule: Q01DX Z (ip), vehicle: methylcellulose (MC)) was 101 % of control.
`Nc1nc(=S)c2ncn(C3OC(CO)C(O)C3O)c2[nH]1` (centres undefined) was tested, and the T/C (dose: 0.31 mg/kg/injection, schedule: Q01DX Z (ip), vehicle: carboxymethylcellulose (CMC)) was 117 % of control, the T/C (dose: 0.63 mg/kg/injection, schedule: Q01DX Z (ip), vehicle: carboxymethylcellulose (CMC)) was 115 % of control and the T/C [8] was 158 % of control. For the same molecule, the T/C (dose: 5.0 mg/kg/injection, schedule: Q01DX Z (ip), vehicle: carboxymethylcellulose (CMC)) was 95 % of control, the T/C [9] was 95 % of control and the T/C [10] was 90 % of control. For the same molecule, the T/C (dose: 20.0 mg/kg/injection, schedule: Q01DX Z (ip), vehicle: carboxymethylcellulose (CMC)) was 90 % of control.

From PubChem BioAssay AID246 (DTP/NCI, 2004)
